Q: For O=S(=O)(c1ccccc1)c1ccc(Cl)cc1, which solubility (mole fraction) (in ethanol, 278.15 K) is on record?
A: Its solubility (mole fraction) is 0.00091.

Q: What about the solubility (mole fraction) (in ethanol, 283.15 K) of the same compound?
A: The solubility (mole fraction) was 0.00105.

Q: And the solubility (mole fraction) (in ethanol, 288.15 K)?
A: Its solubility (mole fraction) is 0.00121.

Q: What about the solubility (mole fraction) (in ethanol, 293.15 K) of the same compound?
A: The solubility (mole fraction) was 0.00142.

Q: And the solubility (mole fraction) (in ethanol, 298.15 K)?
A: Its solubility (mole fraction) is 0.00166.

Q: And the solubility (mole fraction) (in ethanol, 303.15 K)?
A: Its solubility (mole fraction) is 0.00189.

Q: And the solubility (mole fraction) (in ethanol, 308.15 K)?
A: The solubility (mole fraction) was 0.00221.

Q: What about the solubility (mole fraction) (in ethanol, 313.15 K) of the same compound?
A: Its solubility (mole fraction) is 0.00261.

Q: What about the solubility (mole fraction) (in ethanol, 318.15 K) of the same compound?
A: Its solubility (mole fraction) is 0.00301.

Q: And the solubility (mole fraction) (in ethanol, 323.15 K)?
A: Its solubility (mole fraction) is 0.00358.

Q: What about the solubility (mole fraction) (in isopropanol, 278.15 K) of the same compound?
A: The solubility (mole fraction) was 0.00198.

Q: And the solubility (mole fraction) (in isopropanol, 283.15 K)?
A: Its solubility (mole fraction) is 0.00236.

Q: What about the solubility (mole fraction) (in isopropanol, 288.15 K) of the same compound?
A: Its solubility (mole fraction) is 0.00283.

Q: What about the solubility (mole fraction) (in isopropanol, 293.15 K) of the same compound?
A: The solubility (mole fraction) was 0.00338.

Q: And the solubility (mole fraction) (in isopropanol, 298.15 K)?
A: Its solubility (mole fraction) is 0.00395.

Q: And the solubility (mole fraction) (in isopropanol, 303.15 K)?
A: The solubility (mole fraction) was 0.00468.

Q: What about the solubility (mole fraction) (in isopropanol, 308.15 K) of the same compound?
A: Its solubility (mole fraction) is 0.00547.

Q: And the solubility (mole fraction) (in isopropanol, 313.15 K)?
A: Its solubility (mole fraction) is 0.00629.

Q: And the solubility (mole fraction) (in isopropanol, 318.15 K)?
A: Its solubility (mole fraction) is 0.00722.

Q: What about the solubility (mole fraction) (in isopropanol, 323.15 K) of the same compound?
A: Its solubility (mole fraction) is 0.00838.

Q: And the solubility (mole fraction) (in methanol, 278.15 K)?
A: Its solubility (mole fraction) is 0.000276.

Q: What about the solubility (mole fraction) (in methanol, 283.15 K) of the same compound?
A: Its solubility (mole fraction) is 0.000332.

Q: What about the solubility (mole fraction) (in methanol, 288.15 K) of the same compound?
A: Its solubility (mole fraction) is 0.000401.

Q: What about the solubility (mole fraction) (in methanol, 293.15 K) of the same compound?
A: The solubility (mole fraction) was 0.00049.

Q: And the solubility (mole fraction) (in methanol, 298.15 K)?
A: Its solubility (mole fraction) is 0.000572.

Q: And the solubility (mole fraction) (in methanol, 303.15 K)?
A: Its solubility (mole fraction) is 0.000668.

Q: What about the solubility (mole fraction) (in methanol, 308.15 K) of the same compound?
A: The solubility (mole fraction) was 0.000781.

Q: What about the solubility (mole fraction) (in methanol, 313.15 K) of the same compound?
A: Its solubility (mole fraction) is 0.0009.

Q: What about the solubility (mole fraction) (in methanol, 318.15 K) of the same compound?
A: The solubility (mole fraction) was 0.00105.

Q: And the solubility (mole fraction) (in methanol, 323.15 K)?
A: The solubility (mole fraction) was 0.00125.

Q: And the solubility (mole fraction) (in n-propanol, 278.15 K)?
A: The solubility (mole fraction) was 0.00351.

Q: What about the solubility (mole fraction) (in n-propanol, 283.15 K) of the same compound?
A: The solubility (mole fraction) was 0.00411.

Q: And the solubility (mole fraction) (in n-propanol, 288.15 K)?
A: The solubility (mole fraction) was 0.00479.

Q: What about the solubility (mole fraction) (in n-propanol, 293.15 K) of the same compound?
A: The solubility (mole fraction) was 0.00555.

Q: What about the solubility (mole fraction) (in n-propanol, 298.15 K) of the same compound?
A: The solubility (mole fraction) was 0.00645.

Q: What about the solubility (mole fraction) (in n-propanol, 303.15 K) of the same compound?
A: Its solubility (mole fraction) is 0.00754.

Q: What about the solubility (mole fraction) (in n-propanol, 308.15 K) of the same compound?
A: The solubility (mole fraction) was 0.00885.

Q: And the solubility (mole fraction) (in n-propanol, 313.15 K)?
A: The solubility (mole fraction) was 0.0102.

Q: And the solubility (mole fraction) (in n-propanol, 318.15 K)?
A: The solubility (mole fraction) was 0.0116.

Q: What about the solubility (mole fraction) (in n-propanol, 323.15 K) of the same compound?
A: The solubility (mole fraction) was 0.0137.

Q: What about the solubility (mole fraction) (in water, 278.15 K) of the same compound?
A: Its solubility (mole fraction) is 2.88e-06.

Q: What about the solubility (mole fraction) (in water, 283.15 K) of the same compound?
A: Its solubility (mole fraction) is 3.77e-06.

Q: What about the solubility (mole fraction) (in water, 288.15 K) of the same compound?
A: Its solubility (mole fraction) is 4.7e-06.

Q: What about the solubility (mole fraction) (in water, 293.15 K) of the same compound?
A: Its solubility (mole fraction) is 5.95e-06.

Q: What about the solubility (mole fraction) (in water, 298.15 K) of the same compound?
A: The solubility (mole fraction) was 7.38e-06.

Q: What about the solubility (mole fraction) (in water, 303.15 K) of the same compound?
A: The solubility (mole fraction) was 9.03e-06.

Q: What about the solubility (mole fraction) (in water, 308.15 K) of the same compound?
A: The solubility (mole fraction) was 1.1e-05.

Q: What about the solubility (mole fraction) (in water, 313.15 K) of the same compound?
A: Its solubility (mole fraction) is 1.34e-05.

Q: What about the solubility (mole fraction) (in water, 318.15 K) of the same compound?
A: The solubility (mole fraction) was 1.61e-05.

Q: And the solubility (mole fraction) (in water, 323.15 K)?
A: The solubility (mole fraction) was 1.94e-05.

Source: BigSolDB 2.1
